Laboratory results reported in patent US12655116B2, “Substituted isophthalic acid diamides” (Bayer Aktiengesellschaft, priority 2020, dated 2026).

Columns and labels:
LOLRI = assay: Post-emergence herbicidal action against LOLRI; format: in vivo, Lolium rigidum; details: dosage 20 g/ha
Protocol: Seeds of monocotyledonous and dicotyledonous weed and crop plants are laid out in sandy loam soil in wood-fiber pots, covered with soil and cultivated in a greenhouse under good growth conditions. 2 to 3 weeks after sowing, the test plants are treated at the one-leaf stage. The compounds of the invention, formulated in the form of wettable powders (WP) or as emulsion concentrates (EC), are then sprayed onto the green parts of the plants in the form of an aqueous suspension or emulsion at a water application rate equivalent to 600 to 800 l/ha, with addition of 0.2% wetting agent. After the test plants have been left to stand in the greenhouse under optimal growth conditions for about 3 weeks, the action of the preparations is assessed visually in comparison to untreated controls (herbicidal action in percent (%): 100% activity=the plants have died, 0% activity=like control plants). […] The tables below illustrate, in an illustrative manner, the post-emergence herbicidal action of the compounds of the invention, the herbicidal activity being stated in percent.

ECHCG [1] = assay: Pre-emergence herbicidal action against ECHCG; format: in vivo, Echinochloa crus-galli
Method in brief: (§1)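 Pre-emergence soil-surface spray of formulated compound (WP or EC; 600 to 800 l/ha; 0.2% wetting agent) over seeds sown in sandy loam. After 3 weeks under greenhouse conditions, damage is estimated visually in percent against untreated plants.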

AMARE [2] = assay: Pre-emergence herbicidal action against AMARE; format: in vivo, Amaranthus retroflexus
Method in brief: as §1

AMARE [3] = assay: Post-emergence herbicidal action against AMARE; format: in vivo, Amaranthus retroflexus; details: 20 g/ha, visual assessment about 3 weeks after treatment, 100% = plants have died, 0% = like control plants
Method in brief: (§2)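 Spray, one-leaf stage: WP or EC compound in water, 600–800 l/ha, 0.2% wetting agent. Plants held about 3 weeks in the greenhouse, then visually rated in percent of kill compared with untreated controls.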

SETVI [4] = assay: Post-emergence herbicidal action against SETVI; format: in vivo, Setaria viridis
Method in brief: as §2

ALOMY [5] = assay: Pre-emergence herbicidal action against ALOMY; format: in vivo, Alopecurus myosuroides; details: pre-emergence
Method in brief: as §1

VIOTR [6] = assay: Pre-emergence herbicidal action against VIOTR; format: in vivo, Viola tricolor
Method in brief: as §1

ABUTH [7] = assay: Post-emergence herbicidal action against ABUTH; format: in vivo, Abutilon theophrasti; details: visual assessment about 3 weeks after treatment vs untreated controls
Method in brief: as §2

ABUTH [8] = assay: Pre-emergence herbicidal action against ABUTH; format: in vivo, Abutilon theophrasti
Method in brief: as §1

AVEFA [9] = assay: Post-emergence herbicidal action against AVEFA; format: in vivo, Avena fatua; details: 20 g/ha, visual assessment about 3 weeks after treatment, 100% = plants have died, 0% = like control plants
Method in brief: as §2

AVEFA [10] = assay: Pre-emergence herbicidal action against AVEFA; format: in vivo, Avena fatua; details: Avena fatua, 504 h; 80 g/ha, pre-emergence
Method in brief: as §1

ALOMY [11] = assay: Post-emergence herbicidal action against ALOMY; format: in vivo, Alopecurus myosuroides; details: visual assessment about 3 weeks after treatment vs untreated controls
Method in brief: as §2

ECHCG [12] = assay: Post-emergence herbicidal action against ECHCG; format: in vivo, Echinochloa crus-galli
Method in brief: as §2

VIOTR [13] = assay: Post-emergence herbicidal action against VIOTR; format: in vivo, Viola tricolor
Method in brief: as §2

SETVI [14] = assay: Pre-emergence herbicidal action against SETVI; format: in vivo, Setaria viridis
Method in brief: as §1

VERPE = assay: Pre-emergence herbicidal action against VERPE; format: in vivo, Veronica persica; details: Veronica persica, 504 h, dosage 80 g/ha
Method in brief: as §1

MATIN [15] = assay: Pre-emergence herbicidal action against MATIN; format: in vivo, Matricaria inodora; details: Tripleurospermum inodorum, 504 h, dosage 80 g/ha
Method in brief: as §1

DIGSA [16] = assay: Pre-emergence herbicidal action against DIGSA; format: in vivo, Digitaria sanguinalis
Method in brief: as §1

PHBPU = assay: Post-emergence herbicidal action against PHBPU; format: in vivo, Pharbitis purpurea; details: dosage 20 g/ha
Method in brief: as §2

DIGSA [17] = assay: Post-emergence herbicidal action against DIGSA; format: in vivo, Digitaria sanguinalis
Method in brief: as §2

MATIN [18] = assay: Post-emergence herbicidal action against MATIN; format: in vivo, Matricaria inodora; details: dosage 20 g/ha
Method in brief: as §2

STEME [19] = assay: Post-emergence herbicidal action against STEME; format: in vivo, Stellaria media
Method in brief: as §2

STEME [20] = assay: Pre-emergence herbicidal action against STEME; format: in vivo, Stellaria media
Method in brief: as §1

POLCO = assay: Pre-emergence herbicidal action against POLCO; format: in vivo, Polygonum convolvulus; details: dosage 80 g/ha
Method in brief: as §1

[21] = Setaria viridis, 504 h, dosage 20 g/ha
[22] = 80 g/ha, scored visually after 3 weeks vs untreated controls (100% = plants have died, 0% = like control plants)

Cn1nnnc1NC(=O)c1ccc(Cl)c(C(=O)NC2CC2)c1Br [Example 1-351]
90%: pest or weed control at 5 g/ha (ALOMY [11]; Alopecurus myosuroides, 504 h, dosage 5 g/ha) | pest or weed control at 20 g/ha (ALOMY [11]; Alopecurus myosuroides, 504 h, dosage 20 g/ha) | pest or weed control at 80 g/ha (VERPE)
80%: pest or weed control at 20 g/ha (LOLRI; Lolium rigidum, 504 h) | pest or weed control at 20 g/ha (ABUTH [7]; Abutilon theophrasti, 504 h, dosage 20 g/ha) | pest or weed control at 20 g/ha (AVEFA [9]; Avena fatua, 504 h) | pest or weed control at 20 g/ha (VIOTR [13]; Viola tricolor, 504 h, 20 g/ha)
100%: pest or weed control at 80 g/ha (ECHCG [1]; Echinochloa crus-galli, 504 h, 80 g/ha) | pest or weed control at 20 g/ha (AMARE [2]; Amaranthus retroflexus, 504 h, 20 g/ha, scored visually after 3 weeks vs untreated controls, 100% = plants have died, 0% = like control plants) | pest or weed control at 80 g/ha (AMARE [2]; Amaranthus retroflexus, 504 h, 80 g/ha, scored visually after 3 weeks vs untreated controls, 100% = plants have died, 0% = like control plants) | pest or weed control at 20 g/ha (AMARE [3]; Amaranthus retroflexus, 504 h) | pest or weed control at 20 g/ha (SETVI [4]; [21]) | pest or weed control at 80 g/ha (ALOMY [5]; Alopecurus myosuroides, 504 h, 80 g/ha, scored visually after 3 weeks vs untreated controls (100% = plants have died, 0% = like control plants)) | pest or weed control at 20 g/ha (ALOMY [5]; Alopecurus myosuroides, 504 h, 20 g/ha, scored visually after 3 weeks, 100% = plants have died, 0% = like control plants) | pest or weed control at 20 g/ha (VIOTR [6]; Viola tricolor, 504 h, dosage 20 g/ha) | pest or weed control at 80 g/ha (VIOTR [6]; Viola tricolor, 504 h, dosage 80 g/ha) | pest or weed control at 80 g/ha (ABUTH [8]; Abutilon theophrasti, 504 h, 80 g/ha, scored visually after 3 weeks vs untreated controls (100% = plants have died, 0% = like control plants)) | pest or weed control at 80 g/ha (AVEFA [10]) | pest or weed control at 20 g/ha (ECHCG [12]; Echinochloa crus-galli, 504 h, dosage 20 g/ha) | pest or weed control at 20 g/ha (SETVI [14]; [21]) | pest or weed control at 80 g/ha (SETVI [14]; Setaria viridis, 504 h, dosage 80 g/ha) | pest or weed control at 80 g/ha (MATIN [15])

CCNC(=O)c1c(C(F)F)ccc(C(=O)Nc2nnco2)c1Cl [Example 5-123]
100%: Pre-emergence action against ECHCG in % (ECHCG [1]; 80 g/ha) | Pre-emergence action against AMARE in % (AMARE [2]; 20 g/ha, scored visually after 3 weeks vs untreated controls, 100% = plants have died, 0% = like control plants) | Pre-emergence action against AMARE in % (AMARE [2]; [22]) | Pre-emergence action against DIGSA in % (DIGSA [16]; dosage 20 g/ha) | Pre-emergence action against DIGSA in % (DIGSA [16]; dosage 80 g/ha) | Pre-emergence action against VIOTR in % (VIOTR [6]; dosage 80 g/ha) | Pre-emergence action against ABUTH (herbicidal activity) (ABUTH [8]; [22]) | Pre-emergence action against ABUTH (herbicidal activity in percent) (ABUTH [8]; dosage 20 g/ha, scored visually after 3 weeks vs untreated controls, 100% = plants have died, 0% = like control plants) | Pre-emergence action against SETVI in % (SETVI [14]; dosage 80 g/ha)
80%: Post-emergence action against LOLRI in % (LOLRI) | Post-emergence action against SETVI in % (SETVI [4]; dosage 5 g/ha) | Post-emergence action against SETVI in % (SETVI [4]; dosage 20 g/ha) | Pre-emergence action against ALOMY (herbicidal activity) (ALOMY [5]; [22]) | Post-emergence action against PHBPU in % (PHBPU) | Post-emergence action at 20 g/ha against AVEFA in % (AVEFA [9]) | Post-emergence action against ALOMY in % (ALOMY [11]; dosage 20 g/ha) | Post-emergence action against MATIN in % (MATIN [18]) | Post-emergence action against VIOTR in % (VIOTR [13]; 5 g/ha) | Pre-emergence action against POLCO in % (POLCO)
90%: Pre-emergence action against ECHCG in % (ECHCG [1]; 20 g/ha) | Post-emergence action at 20 g/ha against AMARE in % (AMARE [3]) | Pre-emergence action against VIOTR in % (VIOTR [6]; dosage 20 g/ha) | Post-emergence action against ABUTH in % (ABUTH [7]; dosage 5 g/ha) | Post-emergence action against ABUTH in % (ABUTH [7]; dosage 20 g/ha) | Post-emergence action against DIGSA in % (DIGSA [17]; 5 g/ha) | Post-emergence action against DIGSA (DIGSA [17]; 20 g/ha) | Post-emergence action against ECHCG in % (ECHCG [12]; dosage 5 g/ha) | Post-emergence action against ECHCG in % (ECHCG [12]; dosage 20 g/ha) | Post-emergence action against VIOTR in % (VIOTR [13]; 20 g/ha) | Post-emergence action against STEME in % (STEME [19]; 20 g/ha) | Post-emergence action against STEME in % (STEME [19]; dosage 5 g/ha) | Pre-emergence action against STEME in % (STEME [20]; dosage 20 g/ha) | Pre-emergence action against STEME in % (STEME [20]; dosage 80 g/ha)
